The values that follow come from patent US5356926A, “3-alkyloxy-, aryloxy-, or arylalkyloxy-benzo [β]thiophene-2-carboxamides as inhibitors of cell adhesion” (Warner-Lambert Company, priority 1993, dated 1994).

Test [1] addresses T1, 5-Lipoxygenase (Rattus norvegicus, UniProt P12527).
T1 sequence (P12527 1-673): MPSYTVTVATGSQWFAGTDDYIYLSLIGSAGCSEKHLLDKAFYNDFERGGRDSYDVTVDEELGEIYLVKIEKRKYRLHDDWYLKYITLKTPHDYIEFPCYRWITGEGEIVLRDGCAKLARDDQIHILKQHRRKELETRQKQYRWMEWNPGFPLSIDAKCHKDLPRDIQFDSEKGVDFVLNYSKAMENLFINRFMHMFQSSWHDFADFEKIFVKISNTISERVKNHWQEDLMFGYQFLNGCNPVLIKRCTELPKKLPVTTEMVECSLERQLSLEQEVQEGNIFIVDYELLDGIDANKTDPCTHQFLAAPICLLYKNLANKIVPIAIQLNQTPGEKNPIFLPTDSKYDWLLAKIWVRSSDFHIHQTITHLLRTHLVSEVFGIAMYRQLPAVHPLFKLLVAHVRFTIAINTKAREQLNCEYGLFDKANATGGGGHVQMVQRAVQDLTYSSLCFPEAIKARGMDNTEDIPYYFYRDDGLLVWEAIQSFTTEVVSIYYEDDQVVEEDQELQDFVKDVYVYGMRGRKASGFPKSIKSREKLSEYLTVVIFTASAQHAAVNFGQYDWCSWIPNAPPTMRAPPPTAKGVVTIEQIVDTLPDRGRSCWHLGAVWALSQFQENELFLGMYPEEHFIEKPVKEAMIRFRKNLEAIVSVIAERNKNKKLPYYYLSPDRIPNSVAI
Put plainly: 5-lipoxygenase inhibition assay (20,000 xg supernatant of RBL cells). Format: biochemical. Further details: activity contained in the 20,000 xg supernatant from cultured rat basophilic leukemia (RBL) cells; endogenous in cells; host or cells: RBL (rat basophilic leukemia) cells, 20,000 xg supernatant. The protocol: PROTOCOL FOR 5-LIPOXYGENASE INHIBITION ASSAY
Incubations contained 5% (v/v) RBL 20,000 xg supernatant in assay buffer (10 mM BES, 10 mM PIPES, 1 mM EDTA, 0.75 mM CaC12, 1 mMATP, 100 mMNaCl, pH 6.8). DMSO vehicle (2% v/v) with and without inhibitors is preincubated with the enzyme for 20 minutes at 37° C. before initiating the 5-lipoxygenase catalyzed reaction by adding […] [^14 C]arachidonic acid (55.8 mCi/mmol, New England Nuclear, Boston, Mass.) dissolved in 5 μL 0,028% (v/v) aqueous NH4 OH. After 20 minutes of additional incubation at 37° C., reactions are terminated by the addition of three volumes of methanol containing 100 μg triphenylphosphine. Samples are then analyzed by HPLC with radiometric detection for 5-1ipoxygenase reaction products.
All treatments are evaluated in duplicate and percent inhibition is computed by comparing the products formed in treatment incubations to the mean product formation in the vehicle control group.

The test system of test [2] is human neutrophil adhesion to TNFα, IL-1α, and LPS-stimulated human umbilical vein endothelial cells. Put plainly: Inhibition of human neutrophil adhesion to stimulated HUVEC (51Cr-labeled neutrophils). Format: cell-based. From the text: METHOD FOR DETERMINING THE INHIBITION OF HUMAN NEUTROPHIL ADHESION TO TNFα, IL-1α, AND LPS-STIMULATED HUMAN UMBILICAL VEIN ENDOTHELIAL CELLS BY 3-ALKYLOXY-, ARYLOXY-, OR ARYLALKYLOXY BENZO[b]THIOPHENE-2-CARBOXAMIDES
Neutrophils were isolated from anticoagulant-treated venous blood obtained from healthy human volunteers according to the method of Ferrante and Thong (J. Immunol. Methods 1978;24:389-93).
Second passage human umbilical vein endothelial cells (HUVEC) (Clonetics, San Diego, Calif.) were seeded into Falcon 24-well cell culture plates (Becton Dickinson, Lincoln Park, N.J.) at approximately 2×10^4 cells per well. The cells were grown to confluent monolayers in endothelial basal medium (EBM, Clonetics) supplemented with 5% fetal calf serum (Hyclone Laboratories, Logan, Utah), 10 ng/mL EGF, 1 μg/mL hydrocortisone, 0.4% bovine brain extract (Clonetics) in 5% CO2 at 37° C.
Neutrophils (30×10^6) were labeled for 60 minutes at 37° C. with 100 μCi Na^51 CrO4 (ICN Biomedicals, Costa Mesa, Calif.) in 2.0 mL Ca^2+ - and Mg^2+ -free Hanks' balanced salt solution (HBSS, GIBCO Laboratories, Grand Island, N.Y.). The cells were washed two times in HBSS and suspended in unsupplemented EBM.
Stimulation of HUVEC with tumor necrosis factor-α (TNFα) (Genzyme, Cambridge, Mass.) , interleukin (IL-1α) (Genzyrne) or E. coli 0111:B4 lipopolysaccharide (LPS) (Sigma) in the presence or absence of drug was initiated 4 hours prior to the addition of neutrophils. The suspension medium was unsupplemented EBM or supplemented EBM for studies with cytokines or LPS, respectively. […] Immediately prior to addition of ^51 Cr-labeled neutrophils to the HUVEC monolayers, the cultures were washed with 1 mL unsupplemented media to remove stimulus and/or drug. Neutrophils (5×10^5) were then added to the HUVEC in 0.5 mL unsupplemented media and incubated at 37° C. for 30 minutes. Nonadherent neutrophils were removed by aspiration. Following an additional wash, adherent neutrophils were lysed with 0.5 mL 1N NH4 OH overnight at 37° C. Lysates were collected and the radioactivity in each well was determined by gamma ray spectroscopy.

The subject of a further test is Cyclooxygenase. Put plainly: ARBC: cyclooxygenase (PGF2α) in RBL-1 cells. As to conditions: Table 4, class symbol. Format: cell-based, rat. As to the method: (§1) The testing methods used are described as follows:
(§2) The rat basophilic leukemia cell line (RBL-1) was obtained from the American Type Culture Collection (Rockville, Md.).
(§3) Radioimmunoassay (RIA) kits of LTB4 and PGF2α were obtained from Arnersham (Arlington Heights, IL) and Seragen (Boston, Mass.), respectively.
(§4) All tissue culture media were obtained from GIBCO (Grand Island, N.Y.).
(§5) RBL-1 cells are grown in suspension culture in Eagle's minimum essential medium supplemented with 12% fetal bovine serum at 37° C. in an incubator supplied with air-5% carbon dioxide. Cells are harvested by centrifugation. They are washed with cold phosphate-buffered saline, pH 7.4 (PBS; NaCl, 7.1 g; Na2 HPO4, 1.15 g; KH2 PO4, 0.2 g; and KCl, 0.2 g/L). Cells are finally suspended in PBS containing 1.0 mM calcium at a density of 2×10^6 cells/mL. Cells are incubated with and without test agent (in DMSO) (1% DMSO is without effect on arachidonic acid metabolism) for 10 minutes at room temperature. Calcium ionophore A23187 (5 μM) is added and cells are incubated for 7 minutes at 37° C. The reaction is stopped by chilling the tubes on ice for 10 minutes. Cells are separated by centrifugation and the supernatant is stored at -20° C. Aliquots (100 μL) are analyzed for LTB4 and PGF2α using radioimmunoassay kits as provided by the supplier.

The target of test [3] is T1, 5-Lipoxygenase. Put plainly: ARBL: 5-lipoxygenase (LTB4) in RBL-1 cells. As to conditions: Table 4; for inhibition at 10 µM: RBL-1, class symbol. Format: cell-based. Further details: endogenous in cells; host or cells: RBL-1 (rat basophilic leukemia). As to the method:
as §1, §2, §3, §4, §5

Test [4] has as its system mycobacterium footpad edema. Put plainly: Inhibition of mycobacterium footpad edema (MFE). Format: in vivo, rat. As to conditions: rats. The protocol: METHOD FOR DETERMINING THE INHIBITION OF MYCOBACTERIUM FOOTPAD EDEMA BY […]HOXY-3-([…]HYLETHOXY) BENZO[b]THIOPHENE-2-CARBOXAMIDE-1-OXIDE Mycobacterium butyricum (5 mg/mL) was prepared by sonication in paraffin oil for 10 minutes in an ice bath. Footpad edema was induced on Day 0 by injecting 0.1 mL of the Mycobacterium mixture into the left hindpaw of lightly anesthetized rats. Swelling in the injected hindpaw was determined by mercury plethysmography on Days 1, 2, and 3. Groups of rats were treated with test compounds (suspended in 0.5% hydroxypropyl methylcellulose with 0.2% Tween 80 or vehicle 1 hour before Mycobacterium injection and on Days 1 and 2. Inhibition of swelling is determined by comparing the change in hindpaw volume in compound- and vehicle-treated rats.

Where [5] appears, read: Table 4, class symbol, read-out: 5-LO % Inhibition at 30 μM.

Where two headings read alike, the source gives them in different places.

The term inhibition denotes the relative decrease from the control value, in per cent. On to `CC(C)Oc1c(C(N)=O)sc2ccccc12` [Example 2, 3-(1-methylethoxy)benzo[b]thiophene-2-carboxamide], for which the inhibition at 30 µM at 5-Lipoxygenase [1] (setting [5]) is under 4%. The inhibition at 100 µM in test [2] (Table 1, at 100 μM) was determined as 60%. For the same compound, the “ARBC % Inhibition at 10 μM” value with Cyclooxygenase is “N (Less than 40% inhibition at 10 μM)”. On 5-Lipoxygenase [3], the inhibition at 10 µM was under 40%.

Regarding `COc1ccc2sc(C(N)=O)c(Oc3ccccc3)c2c1` [Example 9, 5-Methoxy-3-(phenoxy)benzo[b]thiophene-2-carboxamide], the inhibition at 30 µM on 5-Lipoxygenase [1] (setting [5]) was under 4%. Besides, the inhibition at 100 µM in test [2] (Table 1, at 100 μM) amounted to 59%. In addition, the “ARBC % Inhibition at 10 μM” value in the test on Cyclooxygenase is listed as “N (Less than 40% inhibition at 10 μM)”. Besides, the inhibition at 10 µM at 5-Lipoxygenase [3] is under 40%.

For orientation: IC50 means the concentration at which inhibition is half-maximal. Low values mean higher potency, high ones lower potency. Take `COc1ccc2sc(C(=O)Nc3ccc(C(=O)O)cc3)c(OC(C)C)c2c1` [Example 12, 4-[[[5-Methoxy-3-(1-methylethoxy)benzo[b]thien-2-yl]carbonyl]amino]benzoic acid]: on 5-Lipoxygenase [1] (Table 4, read-out: 5-LO % Inhibition at 30 μM), the inhibition at 30 µM is 16%. Further, the IC50 in test [2] (Table 2, footnote b) is 50 µM; against 5-Lipoxygenase [3] (ARBL/ARBC IC50 (μM) or % inhibition at 10 μM, RBL-1 cells, A23187), 36 µM.

With `COc1ccc2c(c1)c(OC(C)C)c(C(N)=O)[s+]2[O-]` (centres unmarked) [Example 28, 5-Methoxy-3-(1-methylethoxy)benzo[b]thiophene-2-carboxamide-1-oxide], in test [2] (Table 3, at 100 μM), at 100 µM the inhibition was 83%. In test [4] (Mycobacterium, dosed 1 hour before injection and on Days 1 and 2, read-out: ID40 in mycobacterium footpad edema (MFE)), the ED40 stood at 10.9 mg/kg. Besides, the “activity in mycobacterium footpad edema (in words)” value in test [4] was “active”.
